Data reported in US20130071892A1, “PROCESS FOR PRODUCTION OF POLYHYDROXYALKANOIC ACID USING GENETICALLY MODIFIED MICROORGANISM HAVING ENOYL-CoA HYDRATASE GENE INTRODUCED THEREIN” (TOKYO INSTITUTE OF TECHNOLOGY, priority 2010, published 2013).

Assays:
[1] = biological target: T1, C. necator R form-specific enoyl-CoA hydratase PhaJ1 (phaJ1 gene, H16_A1070, SEQ ID NO: 2), wild type, recombinant N-terminal His tag (Cupriavidus necator, UniProt Q0KCR0); experiment: enoyl-CoA hydratase activity, absorbance decrease at 263 nm, Lineweaver-Burk analysis; assay type: biochemical, Cupriavidus necator H16; details: 100 mM Tris-HCl buffer (pH 7.8)
T1 sequence (Q0KCR0 1-158): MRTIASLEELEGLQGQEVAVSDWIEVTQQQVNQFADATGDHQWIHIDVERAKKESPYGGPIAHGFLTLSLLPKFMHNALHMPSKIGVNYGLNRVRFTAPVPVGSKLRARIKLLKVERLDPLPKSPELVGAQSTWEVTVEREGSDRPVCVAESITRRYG
Description: (§1) By homology search with a known R form-specific enoyl CoA hydratase, phaJ1 (SEQ ID NO: 2), phaJ2 (SEQ ID NO: 3), and phaJ3 were identified as a presumptive R form-specific enoyl CoA hydratase gene. Then, using the genomic DNA of C. necator as the template, phaJ1 was amplified by a PCR method with the oligonucleotides of the following sequence 19 and sequence 20 as the primers. Similarly, phaJ2 was amplified by a PCR method with the oligonucleotides of sequence 21 and sequence 22 as the primers. Furthermore, phaJ3 was amplified by a PCR method with the oligonucleotides of sequence 23 and sequence 24 as the primers. Using the KOD Plus (manufactured by TOYOBO) for PCR, a cycle comprising 20 seconds at 98° C., 15 seconds at 61° C. and 2 minutes at 68° C. was repeated for 30 cycles.
(§2) Each fragment of phaJ1, phaJ2 and phaJ3 that were amplified and cleaved with NdeI and XhoI in Example 16 was inserted into an expression plasmid pCOLDII (manufactured by Takara-Bio) cleaved with each of NdeI and XhoI. The plasmids obtained were designated as pCOLD-J1, pCOLD-J2 and pCOLD-J3. These expression plasmids have been constructed so as to produce recombinant protein in which a tag sequence (hereinafter referred to as His tag) comprising 6 histidine residues has been added to the amino terminal end. Using pCOLD-J1, pCOLD-J2 and pCOLD-J3, E. coli strain BL21 (DE3) (manufactured by Novagen) was transformed. Each transformant obtained was cultured in 100 mL of LB medium with 100 mg ampicillin at 37° C. for 4 hours, to which isopropyl-thiogalacto-pyranoside (IPTG) was added at a final concentration of 0.5 mM to induce expression, and further culcuted at 15° C. for 24 hours. The cells collected by centrifugation were resuspended in 20 mM sodium phosphate buffer (pH 7.4) containing 30 mM imidazole and 500 mM NaCl, sonic-disrupted and centrifuged to obtain soluble protein fractions.
(§3) This soluble protein fraction was filtered with a filter having a pore size of 0.22 μm. Then, this was subjected to the HisTrap FF crude column (1 ml) (manufactured by GE Healthcare) equalized in advance with 20 mM sodium phosphate buffer (pH 7.4) containing 30 mM imidazole and 500 mM NaCl so as to allow the His tag-carrying protein to be adsorbed. Subsequently, by linearly increasing the imidazole concentration from 30 mM to 500 mM, the adsorbed protein was eluted and recovered to prepare purified enzyme.
(§4) Proteins expressed from the three genes, phaJ1, phaJ2 and phaJ3, derived from C. necator are hereinafter referred to as PhaJ1, PhaJ2 and PhaJ3, respectively. For each of purified recombinant protein products produced in E. coli, the activity of enoyl-CoA hydratase when crotonyl-CoA (4 carbons), 2-hexenoyl-CoA (6 carbons) or 2-octenoyl-CoA (8 carbons) was used as the substrate was determined according to the method described in Non-patent document 4. Thus, the purified enzyme was added to 100 mM Tris-HCl buffer (pH 7.8) containing the substrate (a total volume of 400 μl), and reduction in absorbance at 263 nm was measured with a spectrophotometer. At this time, the measured values obtained by varying the substrate concentration were analyzed by the Lineweaver-Burk plot to calculate the Michaelis constant Km, and the maximum velocity Vmax.

[2] = system: C. necator R form-specific enoyl-CoA hydratase PhaJ3 (phaJ3 gene), wild type, recombinant N-terminal His tag; experiment: as above; assay type: biochemical, Cupriavidus necator H16; details: 100 mM Tris-HCl buffer (pH 7.8); for Km: read-out: Michaelis constant Km
Description: as §1, §2, §3, §4

[3] = biological target: C. necator R form-specific enoyl-CoA hydratase PhaJ2 (phaJ2 gene, H16_B0397, SEQ ID NO: 3), wild type, recombinant N-terminal His tag (Cupriavidus necator, UniProt Q0K478); experiment: as above; assay type: biochemical, Cupriavidus necator H16; details: 100 mM Tris-HCl buffer (pH 7.8)
Description: as §1, §2, §3, §4

[4] = substrate: C/C=C/C(=O)SCCNC(=O)CCNC(=O)[C@H](O)C(C)(C)COP(=O)(O)OP(=O)(O)OC[C@H]1O[C@@H](n2cnc3c(N)ncnc32)[C@H](O)[C@@H]1OP(=O)(O)O; experiment: as above; assay type: biochemical, Cupriavidus necator H16
Description: as §1, §2, §3, §4

[5] = substrate: CCC/C=C/C(=O)SCCNC(=O)CCNC(=O)[C@H](O)C(C)(C)COP(=O)(O)OP(=O)(O)OC[C@H]1O[C@@H](n2cnc3c(N)ncnc32)[C@H](O)[C@@H]1OP(=O)(O)O; experiment: as above; assay type: biochemical, Cupriavidus necator H16
Description: as §1, §2, §3, §4

[6] = substrate: CCCCC/C=C/C(=O)SCCNC(=O)CCNC(=O)[C@H](O)C(C)(C)COP(=O)(O)OP(=O)(O)OC[C@H]1O[C@@H](n2cnc3c(N)ncnc32)[C@H](O)[C@@H]1OP(=O)(O)O; experiment: as above; assay type: biochemical, Cupriavidus necator H16
Description: as §1, §2, §3, §4

[7] = stereoselectivity of the hydration reaction, coupled with PHA granule-mediated polymerization and DTNB; assay type: biochemical; details: for absorbance at 412 nm: 0.2 mM crotonyl-CoA, 1 mM DTNB, 5 μl PHA granule fraction, 100 mM Tris-HCl pH 7.8, FIG. 4; for stereoselectivity of the hydration reaction: concluded from the CoA-SH release with PHA granule fraction and DTNB
Description: FIG. 4 The result of investigating the stereoselectivity of PhaJ1, PhaJ2 and PhaJ3 by the conjugation of the enoyl-CoA hydratase-mediated hydration reaction and the PHA granules-mediated polymerization reaction. (A) PhaJ1, (B) PhaJ2, and (C) PhaJ3; dark square: purified enzyme added, open triangle: no purified enzyme added.
In the above measurement of enoyl-CoA hydratase activity, no findings can be obtained on stereoselectivity at the addition of water to the double bond. Thus, the stereoselectivity of the hydration reaction by PhaJ1, PhaJ2 and PhaJ3 was investigated as follows. From the cells of C. necator that accumulated PHA, a water-insoluble PHA granule fraction can be prepared, but PHA synthetic synthase is bound to the surface of the PHA granules. This PHA synthase specifically polymerizes (R)-3-hydroxyacyl-CoA and releases CoA-SH. Thus, when both of the PHA granule fraction and 5,5′-dithiobis(2-nitrobenzoic acid) (DTNB) are present in the reaction solution for determining enoyl-CoA hydratase activity, COA-SH released together with the polymerization by PHA synthase reacts with DTNB to produce a yellow dye having a specific absorption at 412 nm, if the specificity of enoyl-CoA hydratase is (R)-form-specific. Conversely, when enoyl-CoA hydratase is (S)-form-specific, no yellow dye is produced.
Measurement was carried out according to the method described in Non-patent document 4. Thus, the PHA granule fraction was prepared from the cells of the C. necator wild type strain (the H16 strain) cultured for 36 hours in 100 ml of a medium containing fructose as a carbon source in a method described in Example 18. The cells were collected by centrifugation from the culture, and suspended in 3 ml of 50 mM Tris-HCl buffer (pH 7.5) followed by sonic-disruption. The supernatant obtained by low-speed centrifugation of the disruption liquid at 1,500×g, 5 min was further subjected to high-speed centrifugation at 15,000×g, 15 min. And the precipitate fraction was suspended in 3 ml of 50 mM Tris-HCl buffer (pH 7.5) to prepare a PHA granule fraction. Then, the purified enzyme was added to 100 mM Tris-HCl buffer (pH 7.8) containing 0.2 mM crotonyl-CoA, 1 mM DTNB and 5 μl PHA granule fraction (a total volume of 400 μl), and an increase in absorbance at 412 nm was measured.

[8] = other: PhaJ2, 100 mM Tris-HCl buffer (pH 7.8)
[9] = other: PhaJ1, 100 mM Tris-HCl buffer (pH 7.8)

## CCC/C=C/C(=O)SCCNC(=O)CCNC(=O)[C@H](O)C(C)(C)COP(=O)(O)OP(=O)(O)OC[C@H]1O[C@@H](n2cnc3c(N)ncnc32)[C@H](O)[C@@H]1OP(=O)(O)O [2-hexenoyl-CoA (C6), 2-hexenoyl-CoA]
[1]
  Maximum velocity Vmax: 7.0 ± 0.5 × 10^2 U mg^−1
[2]
  Maximum velocity Vmax: 1.1 ± 0.1 × 10^2 U mg^−1
  Km: 110 ± 16 µM
[3]
  Maximum velocity Vmax: 2.4 ± 0.3 × 10^3 U mg^−1

## CCCCC/C=C/C(=O)SCCNC(=O)CCNC(=O)[C@H](O)C(C)(C)COP(=O)(O)OP(=O)(O)OC[C@H]1O[C@@H](n2cnc3c(N)ncnc32)[C@H](O)[C@@H]1OP(=O)(O)O [2-oxtenoyl-CoA (C8), 2-octenoyl-CoA]
[1]
  Maximum velocity Vmax: 6.7 ± 0.7 × 10^2 U mg^−1
[2]
  Maximum velocity Vmax: 2.8 ± 0.5 × 10^2 U mg^−1
  Km: 38 ± 12 µM
[3]
  Maximum velocity Vmax: 2.0 ± 0.1 × 10^3 U mg^−1

## C/C=C/C(=O)SCCNC(=O)CCNC(=O)[C@H](O)C(C)(C)COP(=O)(O)OP(=O)(O)OC[C@H]1O[C@@H](n2cnc3c(N)ncnc32)[C@H](O)[C@@H]1OP(=O)(O)O [Crotonyl-CoA (C4), crotonyl-CoA]
[2]
  Maximum velocity Vmax: 1.3 ± 0.2 × 10^1 U mg^−1
  Km: 178 ± 46 µM
[3]
  Maximum velocity Vmax: 1.4 ± 0.1 × 10^2 U mg^−1

B1: C. necator R form-specific enoyl-CoA hydratase PhaJ2 (phaJ2 gene, H16_B0397, SEQ ID NO: 3), wild type, recombinant N-terminal His tag (Cupriavidus necator H16) (protein)
chain: MKTYENIADLQPLVGEVIGTSEWLALDQARINTFADATGDHQWIHVDVERAKNGPFGAPIAHGFLTLSLLPAFTHSAYRIRNSSTGVNYGLDKVRFPAPVPVDSLLRAQFKLMSYEALENGGAQFKVEMMVERQGGSKPVCIAESILRRFP
[4]; [8]
  Km: 311 ± 15 µM
[5]; [8]
  Km: 77 ± 14 µM
[6]; [8]
  Km: 23 ± 4 µM

B2: PhaJ2: purified His-tagged recombinant protein expressed in E. coli from phaJ2 (SEQ ID NO: 3) of C. necator; (R)-form-specific enoyl-CoA hydratase (protein)
chain: MKTYENIADLQPLVGEVIGTSEWLALDQARINTFADATGDHQWIHVDVERAKNGPFGAPIAHGFLTLSLLPAFTHSAYRIRNSSTGVNYGLDKVRFPAPVPVDSLLRAQFKLMSYEALENGGAQFKVEMMVERQGGSKPVCIAESILRRFP
modifications: His tag; Cupriavidus necator R-hydratase gene (phaJ2); Cupriavidus necator strain H16 (R)-form- specific enoyl-CoA hydratase (R-hydratase, phaJ2), H16_B0397
[7]
  absorbance at 412 nm: increase
  stereoselectivity of the hydration reaction: (R)-form-specific

B3: C. necator R form-specific enoyl-CoA hydratase PhaJ1 (phaJ1 gene, H16_A1070, SEQ ID NO: 2), wild type, recombinant N-terminal His tag (Cupriavidus necator H16) (protein)
chain: MRTIASLEELEGLQGQEVAVSDWIEVTQQQVNQFADATGDHQWIHIDVERAKKESPYGGPIAHGFLTLSLLPKFMHNALHMPSKIGVNYGLNRVRFTAPVPVGSKLRARIKLLKVERLDPLPKSPELVGAQSTWEVTVEREGSDRPVCVAESITRRYG
[4]; [9]
  Km: 91 ± 5 µM
[5]; [9]
  Km: 41 ± 7 µM
[6]; [9]
  Km: 24 ± 5 µM

B4: PhaJ1: purified His-tagged recombinant protein expressed in E. coli from phaJ1 (SEQ ID NO: 2) of C. necator; (R)-form-specific enoyl-CoA hydratase (protein)
chain: MRTIASLEELEGLQGQEVAVSDWIEVTQQQVNQFADATGDHQWIHIDVERAKKESPYGGPIAHGFLTLSLLPKFMHNALHMPSKIGVNYGLNRVRFTAPVPVGSKLRARIKLLKVERLDPLPKSPELVGAQSTWEVTVEREGSDRPVCVAESITRRYG
modifications: His tag; Cupriavidus necator; Cupriavidus necator strain H16 (R)-form- specific enoyl-CoA hydratase (R-hydratase, phaJ1), H16_A1070
[7]
  absorbance at 412 nm: increase
  stereoselectivity of the hydration reaction: (R)-form-specific
